In assay [1] the target is Hepatocyte growth factor receptor (Homo sapiens, UniProt P08581). In words: Inhibition of human c-Met.
The target in assay [2] is Macrophage-stimulating protein receptor (Homo sapiens, UniProt Q04912). In words: Inhibition of human RON.
Sequence of Macrophage-stimulating protein receptor (Q04912 25-304 limits assumed): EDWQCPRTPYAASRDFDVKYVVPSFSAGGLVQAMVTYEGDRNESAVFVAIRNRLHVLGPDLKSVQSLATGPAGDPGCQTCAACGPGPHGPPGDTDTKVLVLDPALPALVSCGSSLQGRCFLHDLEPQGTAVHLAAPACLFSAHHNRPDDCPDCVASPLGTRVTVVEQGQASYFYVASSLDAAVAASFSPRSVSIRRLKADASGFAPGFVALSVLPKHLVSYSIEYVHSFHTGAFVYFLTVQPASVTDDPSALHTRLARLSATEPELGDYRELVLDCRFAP
Sequence of Macrophage-stimulating protein receptor (Q04912 310-1400 limits assumed): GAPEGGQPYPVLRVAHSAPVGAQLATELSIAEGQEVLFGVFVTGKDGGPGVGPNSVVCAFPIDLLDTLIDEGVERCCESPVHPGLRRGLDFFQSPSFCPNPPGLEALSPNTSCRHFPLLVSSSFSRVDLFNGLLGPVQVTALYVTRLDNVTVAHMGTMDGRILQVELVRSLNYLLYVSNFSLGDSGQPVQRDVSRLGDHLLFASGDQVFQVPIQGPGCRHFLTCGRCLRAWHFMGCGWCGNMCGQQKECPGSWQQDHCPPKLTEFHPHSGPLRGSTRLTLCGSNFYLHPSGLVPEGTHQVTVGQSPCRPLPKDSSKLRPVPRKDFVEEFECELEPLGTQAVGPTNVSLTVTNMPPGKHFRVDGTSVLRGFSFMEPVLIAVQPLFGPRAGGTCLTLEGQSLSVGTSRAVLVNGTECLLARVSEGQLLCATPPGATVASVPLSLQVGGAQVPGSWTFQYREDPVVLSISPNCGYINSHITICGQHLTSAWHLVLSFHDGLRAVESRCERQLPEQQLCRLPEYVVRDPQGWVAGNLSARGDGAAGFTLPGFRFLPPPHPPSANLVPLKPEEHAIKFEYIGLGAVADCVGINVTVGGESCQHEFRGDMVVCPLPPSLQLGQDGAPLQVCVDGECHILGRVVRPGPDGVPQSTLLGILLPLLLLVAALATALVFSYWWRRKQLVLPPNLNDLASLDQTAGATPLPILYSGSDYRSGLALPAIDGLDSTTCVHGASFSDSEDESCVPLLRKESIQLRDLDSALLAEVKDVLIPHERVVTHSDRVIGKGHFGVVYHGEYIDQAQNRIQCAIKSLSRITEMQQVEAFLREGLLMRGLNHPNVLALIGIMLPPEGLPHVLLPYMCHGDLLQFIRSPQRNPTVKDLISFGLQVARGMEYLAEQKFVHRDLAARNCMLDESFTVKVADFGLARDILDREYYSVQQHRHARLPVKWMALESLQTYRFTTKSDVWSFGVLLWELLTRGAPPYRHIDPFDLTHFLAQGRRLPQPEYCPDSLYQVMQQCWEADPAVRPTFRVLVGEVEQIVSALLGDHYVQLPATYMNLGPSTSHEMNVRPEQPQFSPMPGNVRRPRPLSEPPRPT

Sequence of Hepatocyte growth factor receptor (P08581 whole entry): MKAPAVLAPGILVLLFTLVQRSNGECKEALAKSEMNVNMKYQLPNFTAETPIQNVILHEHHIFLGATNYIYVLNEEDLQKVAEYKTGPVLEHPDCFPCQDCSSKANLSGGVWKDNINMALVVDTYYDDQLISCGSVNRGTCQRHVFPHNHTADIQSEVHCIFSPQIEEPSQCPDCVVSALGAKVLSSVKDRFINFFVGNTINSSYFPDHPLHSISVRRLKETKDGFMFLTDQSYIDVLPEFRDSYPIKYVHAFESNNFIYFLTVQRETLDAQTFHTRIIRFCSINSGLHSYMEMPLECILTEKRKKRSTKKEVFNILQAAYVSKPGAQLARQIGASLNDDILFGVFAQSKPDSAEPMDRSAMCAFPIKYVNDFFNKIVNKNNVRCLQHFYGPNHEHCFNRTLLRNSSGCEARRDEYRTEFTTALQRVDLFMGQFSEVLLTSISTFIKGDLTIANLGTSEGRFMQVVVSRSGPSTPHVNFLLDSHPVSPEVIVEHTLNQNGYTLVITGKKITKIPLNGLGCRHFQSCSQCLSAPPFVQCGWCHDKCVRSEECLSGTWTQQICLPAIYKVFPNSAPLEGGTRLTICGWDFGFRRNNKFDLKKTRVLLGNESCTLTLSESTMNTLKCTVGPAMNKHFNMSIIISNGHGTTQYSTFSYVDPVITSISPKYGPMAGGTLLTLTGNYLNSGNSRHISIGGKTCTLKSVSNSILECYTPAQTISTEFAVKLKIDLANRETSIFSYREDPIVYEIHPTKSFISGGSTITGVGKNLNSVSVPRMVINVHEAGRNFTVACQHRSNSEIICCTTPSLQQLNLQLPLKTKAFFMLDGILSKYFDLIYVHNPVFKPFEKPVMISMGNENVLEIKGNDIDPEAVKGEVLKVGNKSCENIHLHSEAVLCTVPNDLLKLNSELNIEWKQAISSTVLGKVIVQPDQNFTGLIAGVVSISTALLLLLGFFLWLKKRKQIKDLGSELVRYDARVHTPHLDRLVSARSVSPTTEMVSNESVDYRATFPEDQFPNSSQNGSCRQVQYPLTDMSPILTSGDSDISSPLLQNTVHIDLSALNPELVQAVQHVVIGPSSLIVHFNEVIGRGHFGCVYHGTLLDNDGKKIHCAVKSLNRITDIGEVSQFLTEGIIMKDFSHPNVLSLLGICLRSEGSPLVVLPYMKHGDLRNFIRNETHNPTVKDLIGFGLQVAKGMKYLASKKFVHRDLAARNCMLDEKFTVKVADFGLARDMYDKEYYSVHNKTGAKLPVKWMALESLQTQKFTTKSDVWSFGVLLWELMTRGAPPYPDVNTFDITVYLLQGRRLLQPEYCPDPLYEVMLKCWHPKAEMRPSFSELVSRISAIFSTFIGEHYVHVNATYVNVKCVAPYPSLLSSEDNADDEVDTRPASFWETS

For the molecule `Cn1cnc(-c2cc3nccc(Oc4ccc(NC(=O)c5cnn(-c6ccccc6)c5C(F)(F)F)cc4F)c3s2)c1`, the IC50 was 12 nM in assay [1] and 10 nM in assay [2].

The values above are taken from ChEMBL document CHEMBL3608274, “Design and synthesis of constrained analogs of LCRF-0004 as potent RON tyrosine kinase inhibitors” (Bioorg Med Chem Lett, 2015).
